Laboratory results from US20170280720A1, “ARGININE […] INHIBITORS AND USES THEREOF” (EPIZYME, INC., priority 2014, published 2017).
pIC50: −log10 of the molar value.

biological target: PRMT5 (Homo sapiens, UniProt O14744); assay: PRMT5 IC50 (Table 2; no method described); format: biochemical; details: read-out: PRMT5_ IC50
Sequence (O14744 whole entry, species assumed): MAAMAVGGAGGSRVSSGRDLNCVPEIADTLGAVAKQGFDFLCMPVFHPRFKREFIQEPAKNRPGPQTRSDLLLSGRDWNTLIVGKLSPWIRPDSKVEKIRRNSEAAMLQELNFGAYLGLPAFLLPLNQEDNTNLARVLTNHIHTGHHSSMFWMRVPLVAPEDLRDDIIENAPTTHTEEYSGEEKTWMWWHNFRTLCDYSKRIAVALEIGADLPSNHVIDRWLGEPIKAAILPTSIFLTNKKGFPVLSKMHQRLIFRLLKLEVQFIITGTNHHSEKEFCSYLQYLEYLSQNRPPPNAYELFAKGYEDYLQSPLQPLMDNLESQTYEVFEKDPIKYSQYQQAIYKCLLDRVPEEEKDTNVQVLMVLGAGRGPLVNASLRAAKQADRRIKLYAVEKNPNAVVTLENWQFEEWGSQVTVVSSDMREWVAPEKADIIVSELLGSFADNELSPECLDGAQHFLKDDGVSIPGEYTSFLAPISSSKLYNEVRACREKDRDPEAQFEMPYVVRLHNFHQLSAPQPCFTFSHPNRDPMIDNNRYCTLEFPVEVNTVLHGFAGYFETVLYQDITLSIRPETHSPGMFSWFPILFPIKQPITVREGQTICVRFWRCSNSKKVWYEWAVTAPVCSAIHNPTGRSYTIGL
Sequence (Q9BQA1 whole entry partner, species assumed): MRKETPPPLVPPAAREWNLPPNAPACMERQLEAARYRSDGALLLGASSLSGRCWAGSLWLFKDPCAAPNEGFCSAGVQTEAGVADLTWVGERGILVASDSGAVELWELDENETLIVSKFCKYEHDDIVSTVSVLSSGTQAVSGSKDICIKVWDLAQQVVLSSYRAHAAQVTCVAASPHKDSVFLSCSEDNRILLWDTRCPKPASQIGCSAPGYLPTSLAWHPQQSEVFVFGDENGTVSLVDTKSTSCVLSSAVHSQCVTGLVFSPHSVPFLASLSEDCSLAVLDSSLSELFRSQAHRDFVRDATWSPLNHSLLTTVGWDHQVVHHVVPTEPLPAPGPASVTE

Structure (SMILES) | pIC50
Cc1c(C(=O)NCc2ccccc2)cc(-c2cccc(CN(C)CCN)c2)c2cn[nH]c12 [Compound 15] | 4.97
COc1ccc(Cn2cnc3ccc(-c4ccc(CN(C)CCN)cc4)cc32)cc1 [Compound 16] | 5.24
CC(C)n1ncc2c(C(=O)N3CCc4ccccc4C3)cc(-c3cccc(CN(C)CCN)c3)nc21 [Compound 23] | 4.93
CC(C)n1ncc2c(C(=O)N(C)Cc3ccccc3)cc(-c3cccc(CN(C)CCN)c3)nc21 [Compound 31] | 6.07
CNCCN(C)Cc1cccc(-c2ccc3c(c2)ncn3C(C)C)c1 [Compound 36] | 4.30
CNCCN(C)Cc1cccc(-c2cc(C(=O)N[C@@H](C)c3ccccc3)c3cnn(C(C)C)c3n2)c1 [Compound 44] | 4.30

Further lines, results first:

pIC50 | Structure (SMILES)
6.91 | CS(=O)(=O)N1CCC(Cn2cnc3ccc(-c4ccc(CNCCN)cc4)cc32)CC1 [Compound 129]
4.46 | CN(CCN)Cc1ccc(-c2ccc3ncn(-c4ccccc4)c3c2)cc1 [Compound 19]
6.07 | CNCCN(C)Cc1cccc(-c2cc(C(=O)N(C)Cc3ccccc3)c3cnn(C(C)C)c3n2)c1 [Compound 24]

biological target: T1, Human CARM1 (PRMT4) (Homo sapiens, UniProt Q86X55); assay: CARM1 biochemical assay (3H-SAM Flashplate, peptide substrate); details: read-out: CARM1_ IC50
T1 construct: Flag-CARM1-His; made in house; host or cells: HEK 293F cells (BacMam baculovirus, pFastBacMam)
T1 sequence (Q86X55 2-585 isoform Q86X55-1): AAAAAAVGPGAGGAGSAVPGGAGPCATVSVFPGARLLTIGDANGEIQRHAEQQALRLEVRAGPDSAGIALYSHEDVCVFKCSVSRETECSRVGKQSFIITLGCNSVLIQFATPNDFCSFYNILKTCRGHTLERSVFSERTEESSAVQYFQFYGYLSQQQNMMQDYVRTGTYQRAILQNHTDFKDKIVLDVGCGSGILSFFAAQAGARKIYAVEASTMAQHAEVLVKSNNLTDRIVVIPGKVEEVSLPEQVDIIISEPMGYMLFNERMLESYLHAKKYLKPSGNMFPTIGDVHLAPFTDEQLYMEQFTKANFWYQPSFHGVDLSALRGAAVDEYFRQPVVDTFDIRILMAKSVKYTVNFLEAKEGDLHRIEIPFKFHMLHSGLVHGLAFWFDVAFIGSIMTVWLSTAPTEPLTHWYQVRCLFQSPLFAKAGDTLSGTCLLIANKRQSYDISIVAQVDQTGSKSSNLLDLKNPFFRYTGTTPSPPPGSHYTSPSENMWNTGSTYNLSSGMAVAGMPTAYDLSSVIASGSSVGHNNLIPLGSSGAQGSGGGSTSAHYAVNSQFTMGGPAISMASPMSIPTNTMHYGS
Summary of the method: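 FLAG/His-tagged human CARM1 (isoform 1, Δ539-561, baculovirus-expressed), 0.25 nM, preincubated 30 min at room temperature with compound (2% DMSO) in 20 mM Bicine pH 7.6, then reacted with 30 nM 3H-SAM and 250 nM biotinylated H3 16-30 peptide (R26 monomethyl). Stopped with 300 uM cold SAM; labelled peptide captured on streptavidin Flashplate; % inhibition versus DMSO and 1 mM SAH controls fitted to a 4- or 3-parameter curve.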

Structure (SMILES) | pIC50
CC(C)n1ncc2c(C(=O)N[C@@H](C)c3ccccc3)cc(-c3cccc(CN(C)CCN)c3)cc21 [Compound 10] | 7.35
CNCCN(C)Cc1cccc(-c2cc(C(=O)N[C@@H](C)c3ccccc3)c3cn[nH]c3n2)c1 [Compound 12] | 7.10
Cc1c(C(=O)NCc2ccccc2)cc(-c2cccc(CN(C)CCN)c2)c2cn[nH]c12 [Compound 15] | 6.01
COc1ccc(Cn2cnc3ccc(-c4ccc(CN(C)CCN)cc4)cc32)cc1 [Compound 16] | 5.39
CNCCN(C)Cc1cccc(-c2nc(NCc3cc(C)nn3C)c3cnn(C4CC4)c3n2)c1 [Compound 17] | 8.07
CNCCN(C)Cc1cccc(-c2cc(Nc3ncc(C)s3)c3cnn(C(C)C)c3n2)c1 [Compound 20] | 7.85
CC(C)n1ncc2c(C(=O)N3CCc4ccccc4C3)cc(-c3cccc(CN(C)CCN)c3)nc21 [Compound 23] | 6.73
CC(C)n1ncc2c(C(=O)NCc3ccc(F)cc3)cc(-c3cccc(CN(C)CCN)c3)nc21 [Compound 25] | 7.48
CNCCN(C)Cc1cccc(-c2ccc3ncn(C(C)C)c3c2)c1 [Compound 28] | 4.91
CNCCN(C)Cc1cccc(-c2cc(C(=O)NC3CCOCC3)c3cnn(C4CCC4)c3n2)c1 [Compound 29] | 7.03
CC(C)n1ncc2c(C(=O)N(C)Cc3ccccc3)cc(-c3cccc(CN(C)CCN)c3)nc21 [Compound 31] | 7.66
CCn1ncc2c(C(=O)N[C@@H](C)c3ccccc3)cc(-c3cccc(CN(C)CCNC)c3)nc21 [Compound 33] | 7.10
CNCCN(C)Cc1cccc(-c2ccc3c(c2)ncn3C(C)C)c1 [Compound 36] | 4.80
CNCCN(C)Cc1cccc(-c2cc(C(=O)NCc3ccccc3F)c3cnn(C(C)C)c3n2)c1 [Compound 38] | 7.73
CN(CCN)Cc1cccc(-c2nc(NCc3cccnc3)c3cnn(C4CC4)c3n2)c1 [Compound 40] | 8.15
CNCCN(C)Cc1cccc(-c2cc(C(=O)N[C@@H](C)c3ccccc3)c3cnn(C(C)C)c3n2)c1 [Compound 44] | 7.73

Structure (SMILES) | pIC50
CC(C)n1cnc2cc(-c3ccc(CN(C)CCN)cc3)ccc21 [Compound 46] | 5.00
CNCCN(C)Cc1cccc(-c2cc(C(=O)NCc3c(F)cccc3F)c3cnn(C(C)C)c3n2)c1 [Compound 47] | 7.65
CCC(=O)c1cc(-c2cccc(CN(C)CCNC)c2)nc2c1cnn2C(C)C [Compound 128] | 7.51
CNCCN(C)Cc1cc(-c2cc(C(=O)NC3CCOCC3)c3cnn(C(C)C)c3n2)ccc1F [Compound 130] | 6.88
CNCCN(C)Cc1cccc(-c2cc(NC(=O)NC3CCOCC3)c3cnn(C(C)C)c3n2)c1 [Compound 133] | 7.92
CC(C)n1ncc2c(C(=O)NCc3ccccc3)cc(-c3cccc(CNCCN)c3)cc21 [Compound 134] | 6.48
CNCCN(C)Cc1cccc(-c2cc(C(=O)NCc3cnn(C)c3C)c3cnn(C(C)C)c3n2)c1 [Compound 137] | 8.22
CN(CCN)Cc1cccc(-c2cc(C(=O)NC3CCOCC3)c3cnn(CC(F)(F)F)c3n2)c1 [Compound 144] | 7.57
CC(C)n1ncc2c(C(=O)NC3CCOCC3)cc(-c3cccc(CN(C)CCN)c3)nc21 [Compound 148] | 7.96
CN(CCN)Cc1cccc(-c2cc(C(=O)NC3CCOCC3)c3cnn(C)c3n2)c1 [Compound 158] | 7.41
CCS(=O)(=O)Nc1cc(-c2cccc(CN(C)CCNC)c2)nc2c1cnn2C(C)C [Compound 161] | 6.77
CC(C)n1ncc2c(C(=O)NCc3c(F)cccc3F)cc(-c3cccc(CNCCN)c3)nc21 [Compound 168] | 7.63
CNCCN(C)Cc1cccc(-c2cc(NS(C)(=O)=O)c3cnn(C(C)C)c3n2)c1 [Compound 169] | 6.90
CNCCN(C)Cc1cccc(-c2cc(NS(C)(=O)=O)c3cnn(C(C)C)c3n2)c1 [Compound 170] | 6.58
CNCCN(C)Cc1cccc(-c2cnc3c(c2)OCC(=O)N3)c1 [Compound 355] | 5.00
NCCNCc1ccc(-c2cnc3c(c2)OCC(=O)N3)cc1 [Compound 358] | 5.20

More lines, in order of rising pIC50, values ahead:

pIC50 | Structure (SMILES)
4.89 | CS(=O)(=O)N1CCC(Cn2cnc3ccc(-c4ccc(CNCCN)cc4)cc32)CC1 [Compound 129]
4.90 | CN(CCN)Cc1ccc(-c2ccc3ncn(-c4ccccc4)c3c2)cc1 [Compound 19]
5.00 | CNCCN(C)Cc1cccc(-c2ccc3c(c2)ncn3CCOC)c1 [Compound 34]
5.15 | CC(C)n1cnc2cc(-c3cccc(CN(C)CCN)c3)ccc21 [Compound 32]
5.17 | CNCCN(C)Cc1cccc(-c2cnc3c(c2)c(Br)nn3CC2CCOCC2)c1 [Compound 39]
5.30 | CNCCN(C)Cc1cccc(-c2ccc3cn(Cc4ccccc4)nc3n2)c1 [Compound 35]
5.77 | CC(C)n1cc2c(N)cc(-c3cccc(CN(C)CCN)c3)nc2n1 [Compound 13]
6.07 | CNCCN(C)Cc1cccc(-c2ccc3ncn(C4CCOCC4)c3c2)c1 [Compound 30]
6.45 | CNCCN(C)Cc1cccc(-c2cc(NS(=O)(=O)C(F)(F)F)c3cnn(C(C)C)c3n2)c1 [Compound 164]
6.71 | CC(C)n1ncc2c(C(=O)N3CCCCC3)cc(-c3cccc(CNCCN)c3)nc21 [Compound 153]
6.75 | CC(C)n1ncc2c(C(=O)N3CCCCC3)cc(-c3cccc(CN(C)CCN)c3)nc21 [Compound 43]
6.76 | CC(C)n1ncc2c(C(=O)NCc3ccccc3F)cc(-c3cccc(CNCCN)c3)nc21 [Compound 159]
6.79 | CC(C)n1ncc2c(N3CCOCC3)cc(-c3cccc(CN(C)CCNC4CC4)c3)nc21 [Compound 163]
6.87 | CC(C)n1ncc2c(C(=O)NCc3ccccc3)cc(-c3cccc(CN(C)CCN)c3)cc21 [Compound 14]
6.94 | CC(C)n1ncc2c(C(=O)NCc3ccccc3)cc(-c3cccc(CNCCN)c3)nc21 [Compound 155]
7.01 | CC(C)n1ncc2c(C(=O)NCC3CCOCC3)cc(-c3cccc(CN(C)CCNC4CC4)c3)nc21 [Compound 167]
7.04 | CNCCN(C)Cc1cccc(-c2cc(N)c3cnn(C(C)C)c3n2)c1 [Compound 151]

pIC50 | Structure (SMILES)
7.08 | CNCCN(C)Cc1cccc(-c2cc(Oc3ccccc3)c3cnn(C(C)C)c3n2)c1 [Compound 45]
7.08 | CNCCN(C)Cc1cccc(-c2cc(C(=O)N3CCc4ccccc4C3)c3cnn(C(C)C)c3n2)c1 [Compound 42]
7.15 | CNCCN(C)Cc1cccc(-c2cc(C(=O)N(C)Cc3ccccc3)c3cnn(C(C)C)c3n2)c1 [Compound 24]
7.33 | CNCCN(C)Cc1cccc(-c2cc(OCC(F)(F)F)c3cnn(C(C)C)c3n2)c1 [Compound 154]
7.36 | CNCCN(C)Cc1cccc(-c2cc(C(=O)NCC3CCOCC3)c3cnn(C4CCC4)c3n2)c1 [Compound 21]
7.43 | CNCCN(C)Cc1cccc(-c2cc(NS(=O)(=O)N(C)C)c3cnn(C(C)C)c3n2)c1 [Compound 139]
7.48 | CNCCN(C)Cc1cccc(-c2cc(NC3CC3)c3cnn(C(C)C)c3n2)c1 [Compound 11]
7.58 | CNCCN(C)Cc1cccc(-c2cc(C(=O)NCC3CCOCC3)c3cnn(C4CC4)c3n2)c1 [Compound 26]
7.73 | CNCCN(C)Cc1cccc(-c2cc(NC(=O)NC)c3cnn(C(C)C)c3n2)c1 [Compound 138]
7.87 | CC(C)n1ncc2c(NC3CC3)cc(-c3cccc(CN(C)CCN)c3)nc21 [Compound 41]
8.03 | CN(CCN)Cc1cccc(-c2cc(C(=O)NC3CCOCC3)c3cnn(C4CC4)c3n2)c1 [Compound 142]
8.05 | Cc1nn(C(C)C)c2nc(-c3cccc(CN(C)CCN)c3)cc(N3CCOCC3)c12 [Compound 22, N1-(3-(1-isopropyl-3-methyl-4-morpholino-1H-pyrazolo[3,4-b]pyridin-6-yl)benzyl)-N1-methylethane-1,2-diamine]
8.10 | CNC(=O)Nc1cc(-c2cccc(CN(C)CCN)c2)nc2c1cnn2C(C)C [Compound 126]
8.23 | CN(CCN)Cc1cccc(-c2nc(NC3CCOCC3)c3cnn(C(C)(C)C)c3n2)c1 [Compound 18]
8.26 | CC(C)n1ncc2c(C(=O)NCc3c(F)cccc3F)cc(-c3cccc(CN(C)CCN)c3)nc21 [Compound 37]
8.37 | CNCCN(C)Cc1cccc(-c2nc(NC3CCOCC3)c3cnn(C(C)(C)C)c3n2)c1 [Compound 27, N1-(3-(1-tert-butyl-4-(tetrahydro-2H-pyran-4-ylamino)-1H-pyrazolo[3,4-d]pyrimidin-6-yl)benzyl)-N1,N2-dimethylethane-1,2-diamine]
8.45 | CN(CCN)Cc1cccc(-c2nc(NCc3nccs3)c3cnn(C4CC4)c3n2)c1 [Compound 1]
